According to patent US12083109B2, “Neurokinin antagonists and uses thereof” (California Institute of Technology, priority 2017, dated 2024):
“Also recorded” adds a separate entry of the source. Where two headings read alike, the source gives them in different places.

What was measured:
[1] = molecular target: T1, NK3R (Homo sapiens, UniProt P29371); details: cited from earlier work; for safety and tolerability in clinical trials: human, Phase I
T1 construct: host or cells: human trial subjects
T1 sequence (P29371 1-465): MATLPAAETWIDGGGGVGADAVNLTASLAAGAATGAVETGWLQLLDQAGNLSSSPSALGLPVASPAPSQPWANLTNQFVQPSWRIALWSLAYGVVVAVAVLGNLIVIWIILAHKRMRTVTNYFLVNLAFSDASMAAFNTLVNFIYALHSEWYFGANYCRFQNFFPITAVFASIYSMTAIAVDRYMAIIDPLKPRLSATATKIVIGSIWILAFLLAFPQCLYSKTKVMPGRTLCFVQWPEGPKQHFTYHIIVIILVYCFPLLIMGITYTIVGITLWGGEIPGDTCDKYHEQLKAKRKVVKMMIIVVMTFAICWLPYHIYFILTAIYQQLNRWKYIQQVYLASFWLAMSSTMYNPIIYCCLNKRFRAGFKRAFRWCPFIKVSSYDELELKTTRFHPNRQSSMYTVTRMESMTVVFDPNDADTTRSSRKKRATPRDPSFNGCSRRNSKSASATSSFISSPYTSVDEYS

[2] = molecular target: T2, hM4DREADD in Tac2+ neurons (Homo sapiens, UniProt P08173, A203G/Y113C); assay: Looming disk assay, CNO silencing of Tac2+ neurons (hM4DREADD); format: in vivo, mouse; details: SIS Tac2-Cre mice, CNO 5 mg/kg i.p.
T2 construct: host or cells: Tac2+ neurons of Tac2-Cre mice (dBNSTa, DMH or CeA), transduced in vivo with AAV2-EF1a-DIO-hM4D-mCherry
T2 sequence (P08173 1-479 Y113C/A203G): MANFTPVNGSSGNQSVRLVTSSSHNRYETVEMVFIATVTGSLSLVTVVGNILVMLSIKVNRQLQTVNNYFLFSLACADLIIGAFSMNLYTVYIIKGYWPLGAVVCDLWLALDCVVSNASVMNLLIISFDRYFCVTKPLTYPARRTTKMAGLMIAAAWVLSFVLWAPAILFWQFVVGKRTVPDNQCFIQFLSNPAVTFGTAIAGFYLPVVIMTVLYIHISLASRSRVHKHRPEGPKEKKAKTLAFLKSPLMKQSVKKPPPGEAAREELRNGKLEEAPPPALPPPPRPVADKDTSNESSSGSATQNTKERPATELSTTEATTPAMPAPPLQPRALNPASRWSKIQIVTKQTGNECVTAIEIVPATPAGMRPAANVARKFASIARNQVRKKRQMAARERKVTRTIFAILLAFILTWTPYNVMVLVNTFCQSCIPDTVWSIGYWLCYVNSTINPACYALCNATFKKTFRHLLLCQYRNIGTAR
Description: Freezing behavior to presentation of an overhead looming disk proceeded as previously described (Kunwar et al., 2015; Yilmaz and Meister, 2013; incorporated by reference in their entirety). Briefly, mice were transported to a novel behavioral testing room. After 5 minutes of acclimation, mice were placed inside a novel, custom-built open top Plexiglas arena (48×48×30 cm) covered with a flat screen monitor placed directly above and with illumination provided by infrared LEDs (Marubeni). Mice were given a 5 minute baseline period in the arena, after which entry into the center of the arena triggered presentation of a single, 10 second overhead looming disk stimulus (comprised of a single looming disk presentation 0.5 seconds in duration, which was repeated 10 times with an inter-stimulus interval of 0.5 seconds). The stimulus was controlled by custom MATLAB code (M. Meister, Caltech) run on a dedicated computer in an adjacent room. Mice remained in the area for an additional 2 minutes before being transported back. Behavior was recorded using a video recorder attached to a laptop equipped with video capture software (Corel VideoStudio Pro). Acute freezing behavior to the looming disk (“during”) as well as in the 30 seconds following the last disk (“post”) were scored manually (Behavior Annotator, MATLAB) by an observer blind to environmental conditions. […]

| Structure (SMILES) | efficacy in schizophrenia, bipolar and panic disorder ([1]; human clinical trials) | efficacy in schizophrenia and major depressive disorder ([1]; human trials, Phase II/III) | safety and tolerability in clinical trials [1] | safety and tolerability in clinical trials ([1]; listed as Osanetant) | acute (during) freezing to looming disk ([2]; hM4DREADD in CeA) | persistent (post) freezing to looming disk ([2]; hM4DREADD in dBNSTa) |
| --- | --- | --- | --- | --- | --- | --- |
| CC(=O)N(C)C1(c2ccccc2)CCN(CCC[C@]2(c3ccc(Cl)c(Cl)c3)CCCN(C(=O)c3ccccc3)C2)CC1 [osanetant, N-(1-{3-[(3R)-1-benzoyl-3-(3,4-dichlorophenyl)piperidin-3-yl]propyl}-4-phenylpiperidin-4-yl)-N-methylacetamide] | lack of efficacy | lack of efficacy | safe and well-tolerated | well tolerated; also recorded: exhibited safety |  |  |
| C[N+]1([O-])CCN(C2=Nc3cc(Cl)ccc3Nc3ccccc32)CC1 [CNO, clozapine-N-oxide] |  |  |  |  | blocked; also recorded: suppressed | blocked; also recorded: selectively attenuated |
